The target of experiment [1] is Tubulin beta-4B chain (TUBB4B) (Homo sapiens, UniProt P68371). As to the kind of experiment: TMT LC-MSMS of 11-labelled proteins. Type of experiment: cell-based.
Experiment [2] deals with Sodium/potassium-transporting ATPase subunit alpha-1 (ATP1A1) (Homo sapiens, UniProt P05023). Nature of the experiment: TMT LC-MSMS of 11-labelled proteins. The format is cell-based.
[3] abbreviates: sheet Exp1, SKBR3 cells, 11 0.5 µM 3 h vs DMSO.
Where [4] appears, read: sheet Exp1, SKBR3 cells, 11 0.5 µM 3 h vs with PU-H71 10 µM.
The mark [5] stands for this setting: sheet Merged, SKBR3 cells, 11 0.5 µM 3 h vs DMSO.
[6] abbreviates: sheet Merged, SKBR3 cells, 11 0.5 µM 3 h vs with PU-H71 10 µM.

The text below walks through data of publication PMC5951806, “Rapid labelling and covalent inhibition of intracellular native proteins using ligand-directed N-acyl-N-alkyl sulfonamide” (Nature Communications, 2018).

Sequence of Tubulin beta-4B chain (TUBB4B) (P68371 whole entry): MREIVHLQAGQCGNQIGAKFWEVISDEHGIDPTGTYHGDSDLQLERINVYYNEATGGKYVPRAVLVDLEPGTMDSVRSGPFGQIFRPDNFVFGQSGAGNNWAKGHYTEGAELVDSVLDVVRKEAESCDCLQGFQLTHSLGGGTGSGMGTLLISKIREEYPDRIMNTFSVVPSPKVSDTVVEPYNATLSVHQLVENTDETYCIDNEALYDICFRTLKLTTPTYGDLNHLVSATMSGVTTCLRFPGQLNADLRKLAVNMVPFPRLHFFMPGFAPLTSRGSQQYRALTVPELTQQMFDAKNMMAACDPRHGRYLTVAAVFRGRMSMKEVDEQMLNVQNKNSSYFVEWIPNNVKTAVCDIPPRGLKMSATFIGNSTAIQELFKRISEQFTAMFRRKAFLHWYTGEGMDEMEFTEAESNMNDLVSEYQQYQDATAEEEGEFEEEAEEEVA
Sequence of Tubulin beta-4B chain (TUBB4B) (P68363 whole entry partner): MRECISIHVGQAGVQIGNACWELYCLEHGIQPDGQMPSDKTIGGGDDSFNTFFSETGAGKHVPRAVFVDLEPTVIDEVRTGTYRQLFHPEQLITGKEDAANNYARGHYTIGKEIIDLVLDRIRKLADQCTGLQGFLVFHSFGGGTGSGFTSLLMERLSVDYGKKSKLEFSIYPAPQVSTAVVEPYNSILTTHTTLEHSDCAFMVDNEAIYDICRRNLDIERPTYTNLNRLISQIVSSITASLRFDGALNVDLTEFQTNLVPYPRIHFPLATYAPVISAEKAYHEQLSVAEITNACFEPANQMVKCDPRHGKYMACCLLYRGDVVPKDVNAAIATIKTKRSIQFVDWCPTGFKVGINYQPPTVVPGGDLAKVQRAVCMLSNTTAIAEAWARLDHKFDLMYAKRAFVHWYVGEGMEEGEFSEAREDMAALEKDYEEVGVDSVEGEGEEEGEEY

In the case of `CC(=O)Oc1ccc2c(c1)Oc1cc(OC(C)=O)ccc1C21OC(=O)c2cc(C(=O)NCCOCCOCCNC(=O)CCCC(=O)N(CC#N)S(=O)(=O)c3ccc(C(=O)NCCCn4c(Sc5cc6c(cc5I)OCO6)nc5c(N)ncnc54)cc3)ccc21` [compound 11], the “Abundance Ratio: (11) / (11 with PU-H71)” value is recorded as 1.068 in experiment [1] (Exp3, TUBB4B); 1.046 in experiment [1] (setting [4]); 0.891 in experiment [1] (sheet Exp2, TUBB4B); 1.054 in experiment [1] (setting [6]); 0.969 in experiment [2] (Exp3, ATP1A1); 0.455 in experiment [2] (setting [4]). Also, the “Abundance Ratio: (11) / (11 with PU-H71)” value in experiment [2] (sheet Exp2, ATP1A1) turned out to be 0.735; in experiment [2] (setting [6]) it was 0.455. For the same molecule, the “Abundance Ratio: (11) / (DMSO)” value is on record as 3.456 in experiment [1] (Exp3, TUBB4B); 3.652 in experiment [1] (setting [3]); 2.612 in experiment [1] (sheet Exp2, TUBB4B); 3.477 in experiment [1] (setting [5]); 3.731 in experiment [2] (Exp3, ATP1A1); 1.112 in experiment [2] (setting [3]). In addition, the “Abundance Ratio: (11) / (DMSO)” value in experiment [2] (sheet Exp2, ATP1A1) is reported as 2.007; in experiment [2] (setting [5]), 1.112. Also, the “Abundances (Grouped): 11” value worked out at 287.5 in experiment [1] (Exp3, TUBB4B); 209.5 in experiment [1] (sheet Exp2, TUBB4B); 59.7 in experiment [2] (Exp3, ATP1A1); 162 in experiment [2] (sheet Exp2, ATP1A1). Also, the “Abundances (Grouped): 11 with PU-H71” value is 269.1 in experiment [1] (Exp3, TUBB4B); 235 in experiment [1] (sheet Exp2, TUBB4B); 61.6 in experiment [2] (Exp3, ATP1A1); 220.4 in experiment [2] (sheet Exp2, ATP1A1).
